According to ChEMBL document CHEMBL1629647, “Preclinical evaluation of GS-9160, a novel inhibitor of human immunodeficiency virus type 1 integrase” (Antimicrob Agents Chemother, 2009):

Columns and labels:
[1] = test system: Human immunodeficiency virus 1; test: Selectivity ratio of EC50 for antiviral activity against NRTI-resistant HIV1 harboring RTM184V mutant gene to EC50 for antiviral activity against wild-type HIV1 3B; type: functional
[2] = test system: Human immunodeficiency virus 1; test: Antiviral activity against 0.04 MOI HIV1 3B infected in human MT-2 cells by […] dilution method in presence of 100% human serum; conditions: Human immunodeficiency virus 1, 3B, MT2
[3] = Selectivity index, ratio of CC50 for human T lymphocyte cells to EC50 for HIV1 BAL in presence of 10% FBS; type: toxicity, cell-based
[4] = test system: Human immunodeficiency virus 1; test: Selectivity ratio of EC50 for antiviral activity against HIV1 harboring E138K mutation in catalytic core domain of integrase to EC50 for antiviral activity against wild-type HIV1 3B; type: functional
[5] = test system: Human immunodeficiency virus 1; test: Selectivity ratio of EC50 for antiviral activity against APV-resistant HIV1 selected after 2 passages to EC50 for antiviral activity against wild-type HIV1 3B; type: functional
[6] = test system: Human immunodeficiency virus 1; test: Selectivity ratio of EC50 for antiviral activity against GS-9160-resistant HIV1 selected after 6 passages to EC50 for antiviral activity against wild-type HIV1 3B; type: functional
[7] = test system: Human immunodeficiency virus 1; test: Selectivity ratio of EC50 for antiviral activity against NNRTI-resistant HIV1 harboring RTK103N mutant gene to EC50 for antiviral activity against wild-type HIV1 3B; type: functional
[8] = test system: Human immunodeficiency virus 1; test: Selectivity ratio of EC50 for antiviral activity against HIV1 harboring N155H mutation in catalytic core domain of integrase to EC50 for antiviral activity against wild-type HIV1 3B; type: functional
[9] = Cytotoxicity against human T lymphocyte cells uninfected by XTT method in presence of 10% FBS
[10] = test system: Human immunodeficiency virus 1; test: Selectivity ratio of EC50 for antiviral activity against HIV1 harboring T66I mutation in catalytic core domain of integrase to EC50 for antiviral activity against wild-type HIV1 3B; type: functional
[11] = test system: Human immunodeficiency virus 1; test: Selectivity ratio of EC50 for antiviral activity against PI-resistant HIV1 harboring […], L90M mutant gene to EC50 for antiviral activity against wild-type HIV1 3B; type: functional
[12] = test system: Human immunodeficiency virus 1; test: Antiviral activity against HIV1 3B infected in SupT1 cells assessed as fold increase in viral 2-LTR circles accumulation after […] postinfection by TaqMan real-time PCR; type: functional, SUP-T1
[13] = test system: Human immunodeficiency virus 1; test: Antiviral activity against HIV1 infected in SupT1 cells assessed as accumulation of late RT products after 12 hrs; type: functional, organism-based; conditions: Human immunodeficiency virus 1, SUP-T1, 12 h
[14] = test system: Human immunodeficiency virus 1; test: Selectivity ratio of EC50 for antiviral activity against HIV1 harboring E92V mutation in catalytic core domain of integrase to EC50 for antiviral activity against wild-type HIV1 3B; type: functional
[15] = test system: Human immunodeficiency virus 1; test: Selectivity ratio of EC50 for antiviral activity against GS-9160-resistant HIV1 selected after 8 passages to EC50 for antiviral activity against wild-type HIV1 3B; type: functional
[16] = test system: Human immunodeficiency virus 1; test: Selectivity ratio of EC50 for antiviral activity against HIV1 harboring V151A mutation in catalytic core domain of integrase to EC50 for antiviral activity against wild-type HIV1 3B; type: functional
[17] = test system: Human immunodeficiency virus 1; test: Selectivity ratio of EC50 for antiviral activity against EFV-resistant HIV1 selected after 7 passages to EC50 for antiviral activity against wild-type HIV1 3B; type: functional
[18] = test system: Human immunodeficiency virus 1; test: Selectivity ratio of EC50 for antiviral activity against HIV1 harboring G140S and Q148H mutation in catalytic core domain of integrase to EC50 for antiviral activity against wild-type HIV1 3B; type: functional
[19] = test system: Human immunodeficiency virus 1; test: Selectivity ratio of EC50 for antiviral activity against NRTI-resistant HIV1 harboring RT-6TAMs mutant gene to EC50 for antiviral activity against wild-type HIV1 3B; type: functional
[20] = test system: Human immunodeficiency virus 1; test: Selectivity ratio of EC50 for antiviral activity against APV-resistant HIV1 selected after 4 passages to EC50 for antiviral activity against wild-type HIV1 3B; type: functional
[21] = test system: Human immunodeficiency virus 1; test: Antiviral activity against 0.001 MOI HIV1 BAL infected in human T lymphocyte cells by p24 antigen ELISA in presence of 10% FBS, HSA and alpha1-AGP; type: functional, organism-based; conditions: Human immunodeficiency virus 1, BAL
in vitro [22] = conditions: human, MT4 cells
Description: Selectivity index, ratio of CC50 for human MT4 cells to EC50 for HIV1 3B in presence of 10% FBS

[23] = test system: Human immunodeficiency virus 1; test: Selectivity ratio of EC50 for antiviral activity against 3TC-resistant HIV1 selected after 8 passages to EC50 for antiviral activity against wild-type HIV1 3B; type: functional
[24] = test system: Human immunodeficiency virus 1; test: Selectivity ratio of EC50 for antiviral activity against HIV1 harboring G140S mutation in catalytic core domain of integrase to EC50 for antiviral activity against wild-type HIV1 3B; type: functional
in vitro [25] = conditions: human, MT2 cells
Description: Selectivity index, ratio of CC50 for human MT2 cells to EC50 for HIV1 3B in presence of 10% FBS

[26] = test system: Human immunodeficiency virus 1; test: Selectivity ratio of EC50 for antiviral activity against GS-9160-resistant HIV1 selected after 5 passages to EC50 for antiviral activity against wild-type HIV1 3B; type: functional
[27] = test system: Human immunodeficiency virus 1; test: Selectivity ratio of EC50 for antiviral activity against EFV-resistant HIV1 selected after 3 passages to EC50 for antiviral activity against wild-type HIV1 3B; type: functional
[28] = test system: Human immunodeficiency virus 1; test: Selectivity ratio of EC50 for antiviral activity against HIV1 harboring E92V and V151A mutation in catalytic core domain of integrase to EC50 for antiviral activity against wild-type HIV1 3B; type: functional
[29] = biological target: Human immunodeficiency virus type 1 integrase (Human immunodeficiency virus 1, UniProt Q7ZJM1); test: Inhibition of HIV1 integrase strand transfer activity
Sequence of Human immunodeficiency virus type 1 integrase (Q7ZJM1 whole entry): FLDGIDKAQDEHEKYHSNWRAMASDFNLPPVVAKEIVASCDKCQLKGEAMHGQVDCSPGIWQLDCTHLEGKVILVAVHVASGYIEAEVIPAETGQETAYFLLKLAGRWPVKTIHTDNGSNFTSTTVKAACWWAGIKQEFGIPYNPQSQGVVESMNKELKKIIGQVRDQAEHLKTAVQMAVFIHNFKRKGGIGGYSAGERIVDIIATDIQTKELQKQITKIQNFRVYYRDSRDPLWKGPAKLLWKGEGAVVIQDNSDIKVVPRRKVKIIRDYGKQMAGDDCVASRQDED

[30] = test system: Human immunodeficiency virus 1; test: Antiviral activity against HIV1 3B infected in human MT-2 cells by two fold dilution method in presence of 10% FBS, HSA and alpha1-AGP; type: functional, organism-based; conditions: Human immunodeficiency virus 1, 3B, MT2
[31] = test system: Human immunodeficiency virus 1; test: Antiviral activity against 0.001 MOI HIV1 BAL infected in human T lymphocyte cells by p24 antigen ELISA in presence of 10% FBS; type: functional, organism-based; conditions: Human immunodeficiency virus 1, BAL
[32] = test system: Human immunodeficiency virus 1; test: Selectivity ratio of EC50 for antiviral activity against 3TC-resistant HIV1 selected after 4 passages to EC50 for antiviral activity against wild-type HIV1 3B; type: functional
[33] = Cytotoxicity against human MT4 cells infected with HIV1 3B by three fold dilution method in presence of 10% FBS; type: cell-based; conditions: MT4 cells infected with HIV-1 3B
[34] = test system: Human immunodeficiency virus 1; test: Selectivity ratio of EC50 for antiviral activity against HIV1 harboring L74M mutation in catalytic core domain of integrase to EC50 for antiviral activity against wild-type HIV1 3B; type: functional
[35] = test system: Human immunodeficiency virus 1; test: Selectivity ratio of EC50 for antiviral activity against HIV1 harboring E92Q mutation in catalytic core domain of integrase to EC50 for antiviral activity against wild-type HIV1 3B; type: functional
[36] = test system: Human immunodeficiency virus 1; test: Selectivity ratio of EC50 for antiviral activity against HIV1 harboring E92V, G140S and V151A mutation in catalytic core domain of integrase to EC50 for antiviral activity against wild-type HIV1 3B; type: functional
[37] = test system: Human immunodeficiency virus 1; test: Antiviral activity against HIV1 3B infected in human MT-2 cells by two fold dilution method in presence of 10% FBS; type: functional, organism-based; conditions: Human immunodeficiency virus 1, 3B, MT2
[38] = test system: Human immunodeficiency virus 1; test: Antiviral activity against 0.01 MOI HIV1 3B infected in human MT-2 cells by two fold dilution method in presence of 100% human serum; type: functional, organism-based; conditions: Human immunodeficiency virus 1, 3B, MT2

## O=C(NCc1ccc(F)cc1)c1nc(N2CCCCS2(=O)=O)c2cccnc2c1O
[1]
  Ratio EC50: 1
[2]
  EC50: 0.2 µM
[3]
  selectivity ratio: 700
[4]
  Ratio EC50: 8
[5]
  Ratio EC50: 2.5
[6]
  Ratio EC50: 29
[7]
  Ratio EC50: 1
[8]
  Ratio EC50: 65
[9]
  CC50: 2.1 µM
[10]
  Ratio EC50: 2
[11]
  Ratio EC50: 1
[12]
  fold change (FC): 3
[13]
  EC50: > 1 µM
[14]
  Ratio EC50: 8
[15]
  Ratio EC50: 65
[16]
  Ratio EC50: 5
[17]
  Ratio EC50: 1.3
[18]
  Ratio EC50: 478
[19]
  Ratio EC50: 1
[20]
  Ratio EC50: 1.9
[21]
  EC50: 0.06 µM
In vitro [22]
  selectivity ratio: 400
[23]
  Ratio EC50: 0.8
[24]
  Ratio EC50: 2
In vitro [25]
  selectivity ratio: 1500
[26]
  Ratio EC50: 2.7
[27]
  Ratio EC50: 1.2
[28]
  Ratio EC50: 111
[29]
  IC50: 0.044 µM
[30]
  EC50: 0.043 µM
[31]
  EC50: 0.003 µM
[32]
  Ratio EC50: 1.3
[33]
  CC50: 1.6 µM
[34]
  Ratio EC50: 1
[35]
  Ratio EC50: 42
[36]
  Ratio EC50: 371
[37]
  EC50: 0.002 µM
[38]
  EC50: 0.041 µM

## CN(c1c2c(c(O)c3ncccc13)C(=O)N(Cc1ccc(F)cc1)C2)S(C)(=O)=O
[1]
  Ratio EC50: 1
[2]
  EC50: 0.03 µM
[3]
  selectivity ratio: 2670
[4]
  Ratio EC50: 12
[5]
  Ratio EC50: 1
[6]
  Ratio EC50: 26
[7]
  Ratio EC50: 1
[8]
  Ratio EC50: 50
[9]
  CC50: 4 µM
[10]
  Ratio EC50: 1
[11]
  Ratio EC50: 1
[12]
  fold change (FC): 1.9
[13]
  EC50: > 1 µM
[14]
  Ratio EC50: 12
[15]
  Ratio EC50: 60
[16]
  Ratio EC50: 5
[17]
  Ratio EC50: 0.6
[18]
  Ratio EC50: 1132
[19]
  Ratio EC50: 2
[20]
  Ratio EC50: 1.6
[21]
  EC50: 0.015 µM
In vitro [22]
  selectivity ratio: 457
[23]
  Ratio EC50: 0.5
[24]
  Ratio EC50: 2
In vitro [25]
  selectivity ratio: 1900
[26]
  Ratio EC50: 4.3
[27]
  Ratio EC50: 0.9
[28]
  Ratio EC50: 104
[29]
  IC50: 0.028 µM
[30]
  EC50: 0.015 µM
[31]
  EC50: 0.0015 µM
[32]
  Ratio EC50: 0.5
[33]
  CC50: 0.32 µM
[34]
  Ratio EC50: 1
[35]
  Ratio EC50: 32
[36]
  Ratio EC50: 583
[37]
  EC50: 0.0021 µM
[38]
  EC50: 0.012 µM
